Measured values from the CheMixHub viscosity set.

Assay: xn = mol fraction of the nth substance listed

C1CCC2CCCCC2C1 (configuration not stated) + OCC1CC1
viscosity [mPa·s], 101 kPa
Conditions | x2 = 0.0988 | x2 = 0.2017 | x2 = 0.2994 | x2 = 0.4008 | x2 = 0.5004 | x2 = 0.6011 | x2 = 0.7007 | x2 = 0.8009 | x2 = 0.8994
293.15 K | 2.377 | 2.408 | 2.471 | 2.554 | 2.676 | 2.846 | 3.024 | 3.244 | 3.581
298.15 K | 2.149 | 2.17 | 2.217 | 2.282 | 2.378 | 2.517 | 2.662 | 2.84 | 3.12
303.15 K | 1.952 | 1.965 | 2.001 | 2.05 | 2.126 | 2.24 | 2.356 | 2.502 | 2.736
308.15 K | 1.781 | 1.787 | 1.814 | 1.85 | 1.91 | 2.003 | 2.097 | 2.215 | 2.411
313.15 K | 1.63 | 1.633 | 1.651 | 1.678 | 1.724 | 1.799 | 1.874 | 1.971 | 2.135
318.15 K | 1.499 | 1.497 | 1.509 | 1.527 | 1.562 | 1.623 | 1.683 | 1.762 | 1.899
323.15 K | 1.382 | 1.358 | 1.383 | 1.396 | 1.421 | 1.47 | 1.518 | 1.581 | 1.697

CCCCCCCCCCCCCC + CCCOC(C)=O
298.15 K, 101.33 kPa
Conditions | viscosity [mPa·s]
x1 = 0.066 | 0.605
x1 = 0.0941 | 0.632
x1 = 0.1299 | 0.673
x1 = 0.1877 | 0.734
x1 = 0.2573 | 0.815
x1 = 0.3129 | 0.88
x1 = 0.4379 | 1.045
x1 = 0.5495 | 1.204
x1 = 0.6576 | 1.369
x1 = 0.8073 | 1.631
x1 = 0.8924 | 1.814

ClC(Cl)=C(Cl)Cl + COc1ccccc1
303.15 K, 101.3 kPa
Conditions | viscosity [mPa·s]
x2 = 0.0193 | 0.793
x2 = 0.039 | 0.79
x2 = 0.0561 | 0.792
x2 = 0.1158 | 0.781
x2 = 0.189 | 0.776
x2 = 0.2303 | 0.778
x2 = 0.2742 | 0.783
x2 = 0.3317 | 0.787
x2 = 0.3643 | 0.79
x2 = 0.4286 | 0.801
x2 = 0.4726 | 0.812
x2 = 0.6096 | 0.831
x2 = 0.6829 | 0.848
x2 = 0.7292 | 0.856
x2 = 0.7745 | 0.862
x2 = 0.8665 | 0.878
x2 = 0.8991 | 0.885
x2 = 0.9485 | 0.899

CC(C)CCl + CCCCO
viscosity [mPa·s], 101.33 kPa
Conditions | x1 = 0.1061 | x1 = 0.207 | x1 = 0.3058 | x1 = 0.4036 | x1 = 0.4999 | x1 = 0.6059 | x1 = 0.7007 | x1 = 0.7972 | x1 = 0.8971
298.15 K | 1.981 | 1.554 | 1.233 | 0.9932 | 0.8229 | 0.6801 | 0.5857 | 0.515 | 0.4612
313.15 K | 1.395 | 1.121 | 0.9144 | 0.7548 | 0.6405 | 0.5441 | 0.4768 | 0.4261 | 0.3888

ClC(Cl)=C(Cl)Cl + CC(C)CCO
303.15 K, 101.33 kPa
Conditions | viscosity [mPa·s]
x1 = 0.0975 | 2.635
x1 = 0.2467 | 2.045
x1 = 0.3283 | 1.773
x1 = 0.4163 | 1.524
x1 = 0.5256 | 1.293
x1 = 0.6182 | 1.148
x1 = 0.7334 | 1.013
x1 = 0.8214 | 0.934
x1 = 0.9161 | 0.864

CCCCC(C)=O + CCCCOC(C)=O
298.15 K, 101.33 kPa
Conditions | viscosity [mPa·s]
x2 = 0.1073 | 0.595
x2 = 0.1861 | 0.601
x2 = 0.3117 | 0.611
x2 = 0.4115 | 0.62
x2 = 0.5224 | 0.63
x2 = 0.6318 | 0.64
x2 = 0.7471 | 0.649
x2 = 0.8669 | 0.663
